# Results: US9724366B2, “CD11 B[low] macrophages and conditioned media thereof for treating cancer and/or fibrosis” (CARMEL-HAIFA UNIVRSITY ECONOMIC CORPORATION LTD., priority 2012, dated 2017)
# Legend:
# [1] = tested on: macrophages recovered from peritoneal exudates; experiment: Ex vivo macrophage switch to the CD11b^low phenotype by pro-resolving lipid mediators (flow cytometry); format: cell-based, mice; conditions: mediators 50 nM, Dex 25 μg/ml
# Method: FIG. 8 show promotion of macrophage switch to the CD11b^low phenotype by pro-resolving lipid mediators. Macrophages were recovered from peritoneal exudates 72 hrs post peritonitis initiation and incubated overnight with vehicle (RPMI 10% FBS+0.05% ethanol), RvD1, RvD2, PD1, LXB4, or 15-epi-LXA4, (all at 50 nM), apoptotic cells (M/N ratio of 1:5), or Dex (25 μg/ml). Then, the cells were stained for CD11b and analyzed by flow cytometry, and the percentage of CD11b^low (A) and CD11b^high (B) macrophages was determined. Results are mean±SE of two experiments (n=2). #P<0.005, $ P<0.01, * P<0.05 compared to vehicle.
# Macrophages were recovered from peritoneal exudates 72 hrs post peritonitis initiation and incubated overnight with either RPMI 10% FBS+0.05% ethanol, the resolvins RvD1 or RvD2, […] PD1 or lipoxins LXB4, or 15-epi-LXA4, (all at 50 nM), apoptotic cells (M/N ratio of 1:5), or Dex (25 μg/ml). After 20 hours, the cells were stained for CD11b and analyzed by flow cytometry.
# [2] = tested on: peritonitis-affected mice; experiment: Murine zymosan A peritonitis, RvD1, RvE1 or Dex introduced into the peritoneum; format: in vivo; conditions: for appearance of CD11b^low macrophages in peritoneal exudates, increases over vehicle treatment: RvD1, RvE1 100 ng/mouse, Dex 25 mg/mouse into peritoneum 48 h after peritonitis initiation, exudates at 66 h; for neutrophil numbers: peritoneal exudates
# Method: Male C57BL/6 mice (6-8 wk) were injected intraperitionealy (I.P) with zymosan A (1 mg). 66 hours post zymosan A injection, the mice were euthanized by CO2, their peritoneal cavity was lavaged with 5 ml of phosphate buffered saline (PBS) and the peritoneal exudates were collected by centrifugation for further analysis and experimentation.
# Peritoneal exudates were collected and exudate cells were stained with FITC-conjugated rat anti-mouse Ly-6G, PE-conjugated rat anti-mouse F4/80, and PerCP-conjugated rat anti-mouse CD11b (Biolegend) and analyzed by FACSCalibur (Beckton-Dickinson). Macrophages were isolated using EasySep PE selection magnetic beads following the manufacturer's instructions (StemCell Technologies).
# In some experiments, the macrophages were sorted to CD11b^high and CD11b^low populations of >95% purity, using FACSaria (Beckton-Dickinson), and the separate populations were used for microscopic analysis and for ex vivo stimulation. In some experiments, PKH2-PCL green (0.25 mM, 0.5 mL) was injected I.P at 48 h and peritoneal cells were recovered 4 h later, immunostained for F4/80 and CD11b as above and analyzed for fluorescence intensity of different macrophage populations. In relevant experiments, vehicle, RvD1, RvE1 (100 ng/mouse each), or Dex (25 mg/mouse) were introduced to the peritoneum 48 h after peritonitis initiation, and the exudates were recovered after 66 h and analyzed as before.
# Exudate cells or sorted CD11b^high and CD11b^low macrophages were stained with Hoechst, and enumerated under a fluorescent microscope (Zeiss). Two areas of two cover slips, each containing at least 50 (overall 200) macrophages were analyzed, and the average number of PMN engulfed per macrophage as well as the number of macrophages with cutoff numbers of engulfed PMN, were calculated.
# Similar properties were attributed to glucocorticoids, such as dexamethasone (Dex), that inhibit leukocyte infiltration to inflammation sites and promote the clearance of apoptotic PMN by macrophages. To determine whether pro-resolving mediators regulate emergence of CD11b^low macrophages and thereby promote resolution, RvD1, RvE1, or Dex were introduced into peritonitis-affected mice, and the recovered leukocytes were collected and analyzed for macrophage and neutrophil numbers, macrophage CD11b expression, engulfment of PMN, and responsiveness to LPS. The results are presented in FIG. 8 of Schif-Zuck et al., 2011, which is incorporated herein by reference. […] In addition, RvD1, RvE1 and Dex enhanced the appearance of CD11b^low macrophages (32.8±8.8%, 46.2±1.8%, and 39.9±4.6% increases over vehicle treatment, for RvD1, RvE1, and Dex, respectively) in peritoneal exudates. […] To determine whether RvD1, RvE1, and Dex regulate apoptotic PMN engulfment by macrophages during resolution, exudate cells were enumerated for PMN engulfment and analyzed as in FIG. 2.
# macrophages = experiment: Cytokine secretion (ELISA) of macrophages from treated mice, unstimulated or activated with LPS; format: cell-based; conditions: unstimulated and LPS-stimulated macrophages
# Method: Exudate macrophages were sorted or separated using PE selection magnetic beads (StemCell Technologies) and incubated (1×10^6 cells in 0.5 mL of culture media) with LPS (0-1000 ng/mL), poly (I:C) (4 μg/mL), or CpG-ODN (1 μM). After 16 h, the supernatants were collected and their TNF-α, IL-β, IL-10, TGFβ, CCL2, CCL3, and CCL5 contents were determined by standard ELISA.
# To validate the improvement in immune-silencing of macrophages that followed treatment with RvD1, RvE1 and Dex, macrophages were activated with LPS, and cytokine secretion was determined. […] Thus, treatment with RvD1, RvE1, and Dex, promoted macrophage immune-silencing, as well as the secretion of pro-resolving cytokines from these cells.
# MEFs = experiment: Apoptosis detection in MEFs by TUNEL; format: cell-based, mouse; conditions: 1.5 μg/ml, 4 hours, positive control
# Method: MEF cell line were cultured as described above in 8 well chamber glass slides, fixed with 4% PFA containing 5% sucrose and incubated for 1 hour with a mixture of TUNEL reaction mix according to the manufacturer's protocol (In Situ Cell death Detection Kit; TMR Red) covered with aluminum foil and placed in the 37° C., 5% CO2 incubator for 1 hour. Next, the slides were washed three times with PBS for 15 minutes each, and mounted with VECTASHIELD mounting medium with DAPI. The slides were imaged using a Nikon A1-R confocal laser scanning microscope (University of Haifa, Haifa, Israel).
# 3 images were captured from each well. Each captured frame was analyzed using NIS-Elements AR software to measure in the defined area the number of cells with positive DAPI staining, co-staining for DAPI and TUNEL (selected cells were larger than 8 μm), or Col-I expression by measuring sum intensity of area stained for Col-I per captured field.
# Next we explored whether the inhibition of MEF proliferation by the CM-Mres was due to cell cycle arrest or increase in apoptosis of MEF. Therefore, we tested apoptosis of the MEFs at 48 hours. Therefore, MEFs were either untreated or were induced to differentiate on 8 chamber glass slides and were pre-incubated with CM-Mres 1 hour prior to adding TGFβ1. […] The cells were fixed and evaluated for apoptotic death by TUNEL staining. […]
smiles,measurement,setting,value
CCCCC[C@@H](O)/C=C/C=C\C=C\C=C\[C@@H](O)[C@@H](O)CCCC(=O)O [15-epi-LXA4],macrophage switch to the CD11b^low phenotype,[1],promotes macrophage switch
"C[C@@H]1C[C@H]2[C@@H]3CCC4=CC(=O)C=C[C@]4(C)[C@@]3(F)[C@@H](O)C[C@]2(C)[C@@]1(O)C(=O)CO [Dex, dexamethasone]","appearance of CD11b^low macrophages in peritoneal exudates, increases over vehicle treatment",[2],39.9±4.6%
CCCCC[C@H](O)[C@H](O)/C=C/C=C/C=C\C=C\[C@@H](O)CCCC(=O)O [LXB4],macrophage switch to the CD11b^low phenotype,[1],promotes macrophage switch
CC/C=C\C[C@H](O)\C=C/C=C/C=C/[C@H](O)C/C=C\C/C=C\CCC(=O)O [PD1],macrophage switch to the CD11b^low phenotype,[1],promotes macrophage switch
"CC/C=C\C[C@H](O)/C=C/C=C\C=C\C=C\[C@@H](O)[C@@H](O)C/C=C\CCC(=O)O [RvD1, 7S,8R,17S-trihydroxy-4Z,9E,11E,13Z,15E,19Z-docosahexaenoic acid]",macrophage switch to the CD11b^low phenotype,[1],promotes macrophage switch
same,"appearance of CD11b^low macrophages in peritoneal exudates, increases over vehicle treatment",[2],32.8±8.8%
same,CD11b expression on CD11b^high macrophages,"[2]; mouse, in vivo",reduced
same,number of macrophages in peritoneal cavities,"[2]; mouse, in vivo",reduced
same,numbers of apoptotic PMN engulfed by macrophages present in the peritoneum,"[2]; mouse, in vivo",reduced
same,neutrophil numbers,[2],induced a reduction
same,secretion of TNFα,macrophages,inhibited
CC/C=C\C[C@H](O)[C@H](O)/C=C/C=C/C=C\C=C\[C@@H](O)C/C=C\CCC(=O)O [RvD2],macrophage switch to the CD11b^low phenotype,[1],promotes macrophage switch
"CC[C@@H](O)/C=C/C=C\C[C@@H](O)/C=C/C=C/C=C\[C@@H](O)CCCC(=O)O [RvE1, 5S,12R,18R-trihydroxy-4Z,8E,10E,14Z,16E-eico sapentaenoic acid]","appearance of CD11b^low macrophages in peritoneal exudates, increases over vehicle treatment",[2],46.2±1.8%
same,CD11b expression on CD11b^high macrophages,"[2]; mouse, in vivo",reduced
same,appearance in the peritoneum of low-engulfing macrophages (less than 2 N/M),"[2]; mouse, in vivo",induced
same,neutrophil numbers,[2],induced a reduction
same,secretion of TNFα,macrophages,inhibited
CN[C@@H]1C[C@H]2O[C@@](C)([C@@H]1OC)n1c3ccccc3c3c4c(c5c6ccccc6n2c5c31)C(=O)NC4 [staurosporine],percentage of apoptotic cells (TUNEL),MEFs,no significant changes
